Test [1] concerns Nucleic Acid. The test can be described thus: Compound was evaluated for binding affinity to calf thymus DNA using ethidium displacement assay. The settings on record: Bos taurus. The class given is nucleic-acid assay.
The subject of a further test is KB. The test can be described thus: Compound was evaluated for cytotoxicity measured as TD50. The class given is functional. The note with it: Homo sapiens, read-out: TD50 (the source's name).
Test [2] has as its system Nucleic Acid. The test can be described thus: Compound was evaluated for its ability of alkylation of DNA. The class given is nucleic-acid assay. The settings on record: Bos taurus.
Test [3] has as its system Nucleic Acid. Briefly: Compound was evaluated for its binding affinity to homo poly(dA-dT) polymer using ethidium displacement assay. The class given is nucleic-acid assay.
For test [4], the system named is Nucleic Acid. Briefly: Compound was evaluated for binding affinity to poly(dG-dC) polymer using ethidium displacement assay. The class given is nucleic-acid assay.
The test system of test [5] is Nucleic Acid. The test can be described thus: Compound was evaluated for binding affinity to alternating poly(dA)-poly(dT) polymer using ethidium displacement assay. The class given is nucleic-acid assay.
The subject of test [6] is Nucleic Acid. Briefly: Binding affinity to alternating poly(dA)-poly(dT) polymer using ethidium displacement assay. The note with it: Bos taurus. The class given is nucleic-acid assay.
Test [7] relates to Nucleic Acid. The test can be described thus: Compound was evaluated for binding affinity to homo poly(dA-dT) polymer using ethidium displacement assay. The class given is nucleic-acid assay.

Where only a bound is given, the exact number is not on record here.

As for `CN(C)CCCNC(=O)c1cc(NC(=O)c2cc(NC(=O)c3ccc(N(CCCl)CCCl)cc3)cn2CCCCCCCCCCn2cc(NC(=O)c3ccc(N(CCCl)CCCl)cc3)cc2C(=O)Nc2cc(C(=O)NCCCN(C)C)n(C)c2)cn1C`, the C50 turned out to be 2.02 µM in the test on Nucleic Acid [1], 1.78 µM in the test on Nucleic Acid [3], 1.96 µM with Nucleic Acid [4] and 1.1 µM with Nucleic Acid [5]. Also, the values for the Kb in the test on Nucleic Acid [1] and in the test with Nucleic Acid [4] were 2.74e+06 M⁻¹ and 1.04e+07 M⁻¹, respectively. Moreover, the CC50 with KB was found to be 44.2 µM. For the same compound, the Alkylation in the test with Nucleic Acid [2] was 7.3%.

As for `CN(C)CCCNC(=O)c1cc(NC(=O)c2cc(NC(=O)c3ccc(N(CCCl)CCCl)cc3)cn2CCCCCCCCCn2cc(NC(=O)c3ccc(N(CCCl)CCCl)cc3)cc2C(=O)Nc2cc(C(=O)NCCCN(C)C)n(C)c2)cn1C`, the C50 amounted to 1.74 µM in the test on Nucleic Acid [1], 1.3 µM with Nucleic Acid [3], 1.97 µM with Nucleic Acid [4] and 1.31 µM in the test with Nucleic Acid [5]. Besides, the Kb is 3.2e+06 M⁻¹ in the test with Nucleic Acid [1] and 1.04e+07 M⁻¹ in the test with Nucleic Acid [4]. In addition, the CC50 in the test with KB was over 79.2 µM. For the same compound, the Alkylation in the test on Nucleic Acid [2] is 6.7%.

Turning to `CN(C)CCCNC(=O)c1cc(NC(=O)c2cc(NC(=O)c3ccc(N(CCCl)CCCl)cc3)cn2CCCCCCCCn2cc(NC(=O)c3ccc(N(CCCl)CCCl)cc3)cc2C(=O)Nc2cc(C(=O)NCCCN(C)C)n(C)c2)cn1C`, the C50 in the test on Nucleic Acid [1] was found to be 1.02 µM; with Nucleic Acid [3], 0.802 µM; in the test on Nucleic Acid [4], 1.64 µM; with Nucleic Acid [5], 0.535 µM. Besides, the Kb with Nucleic Acid [1] was 5.6e+06 M⁻¹; with Nucleic Acid [4], 1.25e+07 M⁻¹. Moreover, the CC50 in the test on KB is over 79.2 µM. In addition, the Alkylation in the test with Nucleic Acid [2] stood at 7.1%.

Take `CN(C)CCCNC(=O)c1cc(NC(=O)c2cc(NC(=O)c3ccc(N(CCCl)CCCl)cc3)cn2CCCCCCCCCCCn2cc(NC(=O)c3ccc(N(CCCl)CCCl)cc3)cc2C(=O)Nc2cc(C(=O)NCCCN(C)C)n(C)c2)cn1C`: the C50 in the test on Nucleic Acid [1] turned out to be 1.63 µM; in the test with Nucleic Acid [3], 1.1 µM; in the test with Nucleic Acid [4], 2.46 µM; with Nucleic Acid [5] it was 1.2 µM. The Kb in the test with Nucleic Acid [1] is 3.42e+06 M⁻¹; with Nucleic Acid [4], 8.25e+06 M⁻¹. Also, the CC50 in the test with KB is 35.8 µM. This compound displayed an Alkylation with Nucleic Acid [2] of 12%.

With `CN(C)CCCNC(=O)c1cc(NC(=O)c2cc(NC(=O)c3ccc(N(CCCl)CCCl)cc3)cn2CCCCCCCCCCCCn2cc(NC(=O)c3ccc(N(CCCl)CCCl)cc3)cc2C(=O)Nc2cc(C(=O)NCCCN(C)C)n(C)c2)cn1C`, the C50 was found to be 3.17 µM in the test with Nucleic Acid [1], 1.06 µM in the test with Nucleic Acid [3], 2.11 µM in the test with Nucleic Acid [4] and 1.31 µM in the test with Nucleic Acid [5]. For the same compound, the Kb with Nucleic Acid [1] was found to be 1.73e+06 M⁻¹; in the test on Nucleic Acid [4], 9.66e+06 M⁻¹. The CC50 in the test on KB was 36.3 µM.

Consider `CN(C)CCCNC(=O)c1cc(NC(=O)c2cc(NC(=O)c3ccc(N(CCCl)CCCl)cc3)cn2C)cn1C`, for which the C50 with Nucleic Acid [1] was 5.1 µM; in the test with Nucleic Acid [3] it was 2.85 µM; with Nucleic Acid [4], 11 µM; in the test on Nucleic Acid [5] it was 0.199 µM. The Kb came to 1.07e+06 M⁻¹ in the test on Nucleic Acid [1], 6.06e+06 M⁻¹ in the test with Nucleic Acid [6], 1.81e+06 M⁻¹ in the test on Nucleic Acid [4] and 3.41e+06 M⁻¹ in the test on Nucleic Acid [7]. Besides, the CC50 in the test with KB stood at 5 µM. Moreover, the Alkylation in the test with Nucleic Acid [2] came to 11%.

For the origin of these results see ChEMBL document CHEMBL1128615, “Design, synthesis and evaluation of novel bismustard cross-linked lexitropsins” (1995).
